Experimental data as given in patent publication US12590100B2, “Tetrahydro-spiroindoline-pyrrolopyrrole-triones inhibitors of the NRF2-β-TrCP interaction for use in the treatment of fatty liver disease” (Universidad Autonoma De Madrid, priority 2021, dated 2026).

Test system: NRF2
Test: NRF2 and HO-1 protein levels in MEFs (immunoblot)
Format: cell-based, mouse
Experimental: FIG. 4. […] MEFs in serum-depleted conditions were subjected to (A-C) 1 μM, 3 μM, or 10 μM of PHAR and 10 μM of SFN as a positive control for 16 h; or (D-F) 10 μM of PHAR for the indicated times. In both experiments, 0.1% DMSO was used as a vehicle. A), representative immunoblots of NRF2, HO1, KEAP1, LAMINB, and GAPDH as loading controls. B) and C), densitometric analysis of NRF2 and HO1 protein levels of the representative immunoblots depicted in (A), expressed as a ratio of NRF2/LAMINB or HO1/GAPDH. The data is depicted as means±SEM (n=3). Statistical analysis was performed with one-way ANOVA followed by the Bonferroni test to check inter-group differences. *p<0.05; ***p<0.001 vs. 0. D), representative immunoblots of NRF2, HO1, KEAP1, LAMINB, and GAPDH as loading controls. E) and F), Densitometric analysis of NRF2 and HO1 protein levels of the representative immunoblots of (D), expressed as a ratio of NRF2/LAMINB or HO1/GAPDH. The data is depicted as means±SEM (n=3). Statistical analysis was performed with one-way ANOVA followed by the Bonferroni test to check inter-group differences. *p<0.05; ***p<0.001 vs. 0. G), Reporter MCF-7 c32 ARE-luc cells were subjected to 1 μM, 3 μM, or 9 μM of PHAR and 10 μM of SFN as a positive control. 0.1% DMSO was used as a vehicle. Luciferase activity was measured after 16 h of treatment. The data is depicted as means±SEM (n=3). Statistical analysis was performed with one-way ANOVA followed by the Bonferroni test to check inter-group differences. **p<0.01; ***p<0.001 vs. 0. H), MTT assay to evaluate cell viability/toxicity after treatments. I), Serum-deprived MEFs were subjected to 10 μM of PHAR. The mRNA levels of Hmox1, Nqo1, Aox1, Glc, and Gclm after 8 h of treatment were determined by means of pRT-PCR and normalized by means of average LaminB, Gapdh, and β-actin. The data is depicted as means±SEM (n=3). Statistical analysis was performed with the Student's T test. *p<0.05; **p<0.01 ***p<0.001 vs. 0.
In order to empirically determine if PHAR activates NRF2, mouse embryo fibroblasts (MEFs) were treated with several doses of the compound (1 μM, 3 μM, and […]) for 16 h and with 10 μM of sulforaphane (SFN), one of main electrophilic activators of NRF2, used as a positive control.
Moreover, a time course of NRF2 activation with PHAR (10 μM for 2, 4, and 8 h) or with SFN (10 μM, 8 h) was done as a positive control.

With O=C1[C@@H]2[C@H](Cc3c[nH]c4ccccc34)N[C@]3(C(=O)Nc4ccc(Cl)cc43)[C@@H]2C(=O)N1c1ccc2c(c1)OCCO2 [PHAR] the HO-1 levels (16 h, PHAR 1, 3, 9 μM) was “increase, mainly with the dose of 9 μM”, the NRF2 accumulation (16 h, PHAR 1, 3, 9 μM, SFN 10 μM) was “induced NRF2 accumulation, although to a slightly lesser extent than the accumulation induced by SFN” and the “NRF2 accumulation, time course” value (PHAR 10 μM for 2, 4, 8 h, SFN 10 μM, 8 h) was “induced NRF2 accumulation 2 h after treatment”. The “HO-1 levels, time course” value (PHAR 10 μM, 8 h) was “increase in HO-1 levels after 8 h”.
